Measurements published in the supplement of paper PMC10307832.

Experiments:
Experiment in all cases: relative viability (nuclei count vs DMSO), 5 days (fraction); higher = more cells survive
LOU-NH91 = system: LOU-NH91
In short: (§1)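 Lung cancer cell lines in 1536-well plates were dosed by pin tool the day after seeding, either with one drug alone or with a fixed anchor-drug dose plus five library-drug doses (not always all listed) in √10 steps. After 5 days, cells were fixed and their nuclei stained in one step (final 0.05% Triton X-100, 1% formaldehyde, 1 ug/ml Hoechst), then counted on 4× images. Relative viability is the nuclei count in treated wells divided by that in vehicle wells. Values are medians of duplicate plates.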

EPLC-272H = system: EPLC-272H
In short: as §1

UMC-11 = system: UMC-11
In short: as §1

H3255 = system: H3255
In short: as §1

NCI-H2405 = system: NCI-H2405
In short: as §1

NCI-H1975 = system: NCI-H1975
In short: as §1

NCI-H1355 = system: NCI-H1355
In short: as §1

201T = system: 201T
In short: as §1

NCI-H1792 = system: NCI-H1792
In short: as §1

NCI-H1944 = system: NCI-H1944
In short: as §1

NCI-H1651 = system: NCI-H1651
In short: as §1

NCI-H1666 = system: NCI-H1666
In short: as §1

LCLC-103H = system: LCLC-103H
In short: as §1

SK-LU-1 = system: SK-LU-1
In short: as §1

NCI-H2023 = system: NCI-H2023
In short: as §1

NCI-H441 = system: NCI-H441
In short: as §1

NCI-H1734 = system: NCI-H1734
In short: as §1

NCI-H647 = system: NCI-H647
In short: as §1

RERF-LC-KJ = system: RERF-LC-KJ
In short: as §1

NCI-H1915 = system: NCI-H1915
In short: as §1

COCC1(CO)C(=O)C2CCN1CC2 (stereo not drawn) [PRIMA-1MET] + C[C@@H](Oc1cc(-c2cnn(C3CCNCC3)c2)cnc1N)c1c(Cl)ccc(F)c1Cl [Crizotinib] (partner 1 µM)
relative viability (LOU-NH91; first compound 0.2 µM): 0.788
relative viability (LOU-NH91; first compound 0.6325 µM): 0.583
relative viability (LOU-NH91; first compound 2 µM): 0.743
relative viability (LOU-NH91; first compound 6.325 µM): 0.773
relative viability (LOU-NH91; first compound 20 µM): 0.681
relative viability (EPLC-272H; first compound 0.2 µM): 0.989
relative viability (EPLC-272H; first compound 0.6325 µM): 0.867
relative viability (EPLC-272H; first compound 2 µM): 0.816
relative viability (EPLC-272H; first compound 6.325 µM): 0.851
relative viability (EPLC-272H; first compound 20 µM): 0.262
relative viability (UMC-11; first compound 0.2 µM): 0.536
relative viability (UMC-11; first compound 0.6325 µM): 0.643
relative viability (UMC-11; first compound 2 µM): 0.607
relative viability (UMC-11; first compound 6.325 µM): 0.726
relative viability (UMC-11; first compound 20 µM): 0.586
relative viability (H3255; first compound 0.2 µM): 0.898
relative viability (H3255; first compound 0.6325 µM): 0.682
relative viability (H3255; first compound 2 µM): 0.77
relative viability (H3255; first compound 6.325 µM): 0.991
relative viability (H3255; first compound 20 µM): 0.898
relative viability (NCI-H2405; first compound 0.2 µM): 0.679
relative viability (NCI-H2405; first compound 0.6325 µM): 0.847
relative viability (NCI-H2405; first compound 6.325 µM): 0.818
relative viability (NCI-H2405; first compound 20 µM): 0.452
relative viability (NCI-H1975; first compound 0.2 µM): 1.12
relative viability (NCI-H1975; first compound 0.6325 µM): 0.962
relative viability (NCI-H1975; first compound 2 µM): 0.938
relative viability (NCI-H1975; first compound 6.325 µM): 0.939
relative viability (NCI-H1975; first compound 20 µM): 0.828
relative viability (NCI-H1355; first compound 0.2 µM): 1.2
relative viability (NCI-H1355; first compound 0.6325 µM): 1.02
relative viability (NCI-H1355; first compound 2 µM): 0.897
relative viability (NCI-H1355; first compound 6.325 µM): 1.05
relative viability (NCI-H1355; first compound 20 µM): 1.03
relative viability (201T; first compound 0.2 µM): 1.11
relative viability (201T; first compound 0.6325 µM): 1
relative viability (201T; first compound 2 µM): 0.901
relative viability (201T; first compound 6.325 µM): 1.06
relative viability (201T; first compound 20 µM): 1.04
relative viability (NCI-H1792; first compound 0.2 µM): 1.08
relative viability (NCI-H1792; first compound 0.6325 µM): 0.884
relative viability (NCI-H1792; first compound 2 µM): 1.1
relative viability (NCI-H1792; first compound 6.325 µM): 0.991
relative viability (NCI-H1792; first compound 20 µM): 0.971
relative viability (NCI-H1944; first compound 0.2 µM): 1.36
relative viability (NCI-H1944; first compound 0.6325 µM): 0.817
relative viability (NCI-H1944; first compound 6.325 µM): 1.09
relative viability (NCI-H1944; first compound 20 µM): 1.06
relative viability (NCI-H1651; first compound 0.2 µM): 0.991
relative viability (NCI-H1651; first compound 0.6325 µM): 0.788
relative viability (NCI-H1651; first compound 2 µM): 0.741
relative viability (NCI-H1651; first compound 6.325 µM): 0.955
relative viability (NCI-H1651; first compound 20 µM): 0.888
relative viability (NCI-H1666; first compound 0.2 µM): 1.15
relative viability (NCI-H1666; first compound 0.6325 µM): 0.9
relative viability (NCI-H1666; first compound 2 µM): 0.987
relative viability (NCI-H1666; first compound 6.325 µM): 1.25
relative viability (NCI-H1666; first compound 20 µM): 0.443
relative viability (LCLC-103H; first compound 0.2 µM): 1.16
relative viability (LCLC-103H; first compound 0.6325 µM): 1.05
relative viability (LCLC-103H; first compound 2 µM): 0.894
relative viability (LCLC-103H; first compound 6.325 µM): 1.11
relative viability (LCLC-103H; first compound 20 µM): 1.06
relative viability (SK-LU-1; first compound 0.2 µM): 0.93
relative viability (SK-LU-1; first compound 0.6325 µM): 0.729
relative viability (SK-LU-1; first compound 2 µM): 0.837
relative viability (SK-LU-1; first compound 6.325 µM): 1.09
relative viability (SK-LU-1; first compound 20 µM): 0.114
relative viability (NCI-H2023; first compound 0.2 µM): 0.764
relative viability (NCI-H2023; first compound 0.6325 µM): 0.623
relative viability (NCI-H2023; first compound 2 µM): 0.601
relative viability (NCI-H2023; first compound 6.325 µM): 0.694
relative viability (NCI-H2023; first compound 20 µM): 0.584
relative viability (NCI-H441; first compound 0.2 µM): 0.934
relative viability (NCI-H441; first compound 0.6325 µM): 0.78
relative viability (NCI-H441; first compound 2 µM): 0.646
relative viability (NCI-H441; first compound 6.325 µM): 0.663
relative viability (NCI-H441; first compound 20 µM): 0.362
relative viability (NCI-H1734; first compound 0.2 µM): 0.696
relative viability (NCI-H1734; first compound 0.6325 µM): 0.573
relative viability (NCI-H1734; first compound 2 µM): 0.614
relative viability (NCI-H1734; first compound 6.325 µM): 0.677
relative viability (NCI-H1734; first compound 20 µM): 0.171
relative viability (NCI-H647; first compound 0.2 µM): 1
relative viability (NCI-H647; first compound 0.6325 µM): 1.24
relative viability (NCI-H647; first compound 2 µM): 1.09
relative viability (NCI-H647; first compound 6.325 µM): 1.08
relative viability (NCI-H647; first compound 20 µM): 0.896
relative viability (RERF-LC-KJ; first compound 0.2 µM): 0.868
relative viability (RERF-LC-KJ; first compound 0.6325 µM): 0.767
relative viability (RERF-LC-KJ; first compound 2 µM): 0.86
relative viability (RERF-LC-KJ; first compound 6.325 µM): 0.85
relative viability (RERF-LC-KJ; first compound 20 µM): 0.847
relative viability (NCI-H1915; first compound 0.2 µM): 0.975
relative viability (NCI-H1915; first compound 0.6325 µM): 0.703
relative viability (NCI-H1915; first compound 2 µM): 0.794
relative viability (NCI-H1915; first compound 6.325 µM): 0.912
relative viability (NCI-H1915; first compound 20 µM): 0.852
